Reference: US9771369B2, “Compounds and methods for kinase modulation, and indications therefor” (Plexxikon Inc., priority 2014, dated 2017)

Target: c-Kit kinase (Homo sapiens (Human), UniProt P10721)
Experiment: c-Kit biochemical assay (AlphaScreen kinase activity)
Protocol: Assays for biochemical cell-based activity of c-kit kinase are known in the art, for example, as described in U.S. Pat. Nos. 7,498,342 and 7,846,941, the disclosures of which are hereby incorporated by reference as it relates to such assays. The c-kit (or kinase domain thereof) is an active kinase in AlphaScreen. IC50 values are determined with respect to inhibition of c-Kit kinase activity, where inhibition of phosphorylation of a peptide substrate is measured as a function of compound concentration. Compounds to be tested were dissolved in DMSO to a concentration of 30 mM. These were diluted 30 μl into 130 μl of DMSO (4 mM) and 1 μl was added to an assay plate. These were then serially diluted 1:3 (50 μl to 100 μl DMSO) for a total of 8 points. Plates were prepared such that each kinase reaction is 30 μl in 1× kinase buffer (50 mM HEPES, pH 7.2, 5 mM MgCl2, 5 mM MnCl2, 0.01% NP-40, 0.2% BSA), 5% DMSO and 10 μM ATP. Substrate was 100 nM biotin-(E4Y)3 (Open Source Biotech, Inc.). C-kit kinase was at 0.1 ng per sample. After incubation of the kinase reaction for 1 hour at room temperature, 5 μl of donor beads (Streptavidin coated beads (Perkin Elmer Life Science) final concentration 1 μg/ml) in stop buffer (50 mM EDTA in 1× kinase buffer) was added, the sample was mixed and incubated for 30 minutes at room temperature before adding […] of acceptor beads (PY30 coated beads (Perkin Elmer Life Science) final concentration 1 μg/ml) in stop buffer. The samples were incubated for 60 minutes at room temperature and the signal per well was read on AlphaQuest reader. Phosphorylated substrate results in binding of the PY30 antibody and association of the donor and acceptor beads such that signal correlates with kinase activity. The signal vs. compound concentration was used to determine the IC50.
Compounds were also tested using a similar assay with a 10-fold higher ATP concentration. For these samples, compounds to be tested were dissolved in DMSO to a concentration of 30 mM. These were diluted 30 μl into 130 μl of DMSO (4 mM) and 1 μl was added to an assay plate. These were then serially diluted 1:3 (50 μl to 100 μl DMSO) for a total of 8 points. Plates were prepared such that each kinase reaction is 30 μl in 1× kinase buffer (25 mM HEPES, pH 7.5, 2 mM MgCl2, 2 mM MnCl2, 0.01% […], 1 mM DTT, and 0.001% BSA), 5% DMSO and 100 μM ATP. Substrate was 30 nM biotin-(E4Y)10 (Upstate Biotech, Cat#12-440). C-kit kinase was at 1 ng per sample. After incubation of the kinase reaction for 1 hour at room temperature, 5 μl of donor beads (Streptavidin coated beads (Perkin Elmer Life Science) final concentration 10 μg/ml) in stop buffer (25 mM HEPES pH 7.5, 100 mM EDTA, 0.3% BSA) was added, the sample was mixed and incubated for 30 minutes at room temperature before adding 5 μl of acceptor beads (PY30 coated beads (Perkin Elmer Life Science) final concentration 10 μg/ml) in stop buffer. The samples were incubated for 60 minutes at room temperature and the signal per well was read on AlphaQuest or Envision reader (Perkin Elmer Life Science). Phosphorylated substrate results in binding of the PY30 antibody and association of the donor and acceptor beads such that signal correlates with kinase activity. The signal vs. compound concentration was used to determine the IC50.
The c-kit enzyme used in the above assay was either obtained from Cell Signaling Technology (Cat. #7754) or was prepared as follows: A plasmid encoding kit (DNA and encoded protein sequences shown below) was engineered using common polymerase chain reaction (PCR) methods. Complementary DNA cloned from various human tissues were purchased from Invitrogen, and these were used as substrates in the PCR reactions. Specific custom synthetic oligonucleotide primers were designed to initiate the PCR product, and also to provide the appropriate restriction enzyme cleavage sites for ligation with the plasmids. […]

Sequence of c-Kit kinase (P10721 26-976): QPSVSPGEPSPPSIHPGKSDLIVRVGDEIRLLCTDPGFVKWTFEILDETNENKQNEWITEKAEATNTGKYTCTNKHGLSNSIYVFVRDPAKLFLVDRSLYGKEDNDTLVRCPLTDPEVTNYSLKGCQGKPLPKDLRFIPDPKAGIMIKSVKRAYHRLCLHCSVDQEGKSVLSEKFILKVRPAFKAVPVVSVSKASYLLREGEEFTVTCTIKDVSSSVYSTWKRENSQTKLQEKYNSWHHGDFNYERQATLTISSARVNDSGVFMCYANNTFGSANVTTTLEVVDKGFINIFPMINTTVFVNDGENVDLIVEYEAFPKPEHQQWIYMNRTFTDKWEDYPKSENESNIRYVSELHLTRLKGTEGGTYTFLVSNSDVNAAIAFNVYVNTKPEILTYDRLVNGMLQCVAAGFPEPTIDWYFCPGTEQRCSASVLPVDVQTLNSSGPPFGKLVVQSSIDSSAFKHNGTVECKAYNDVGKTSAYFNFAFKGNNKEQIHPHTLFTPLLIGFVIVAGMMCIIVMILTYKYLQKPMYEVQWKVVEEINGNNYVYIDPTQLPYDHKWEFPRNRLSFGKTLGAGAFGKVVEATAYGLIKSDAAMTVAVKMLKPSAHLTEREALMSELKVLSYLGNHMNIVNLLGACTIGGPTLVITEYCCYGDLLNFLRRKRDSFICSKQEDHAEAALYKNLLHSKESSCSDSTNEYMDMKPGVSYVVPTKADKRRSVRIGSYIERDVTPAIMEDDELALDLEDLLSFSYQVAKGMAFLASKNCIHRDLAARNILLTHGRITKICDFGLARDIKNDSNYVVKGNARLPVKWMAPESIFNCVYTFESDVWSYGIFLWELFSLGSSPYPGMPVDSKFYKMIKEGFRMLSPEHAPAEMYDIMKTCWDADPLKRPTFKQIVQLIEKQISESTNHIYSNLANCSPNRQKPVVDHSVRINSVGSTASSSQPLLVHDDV

Question: How did the IC50 turn out when `Cc1nc(C2CCN(c3ncnc4[nH]c(-c5cnn(C(F)F)c5)cc34)CC2)[nH]c1-c1ccc(OC(F)F)cc1` [P-3115, 4-[4-[5-[4-(difluoromethoxy)phenyl]-4-methyl-1H-imidazol-2-yl]-1-piperidyl]-6-[1-(difluoromethyl)pyrazol-4-yl]-7H-pyrrolo[2,3-d]pyrimidine] was run?
Answer: 0.0001 to 1 µM

Question: For `Cc1nc(C2CCN(c3ncnc4[nH]c(-c5cnn(C(F)F)c5)cc34)CC2)[nH]c1-c1ccc(OC(F)(F)F)cc1` [P-3116, 6-[1-(difluoromethyl)pyrazol-4-yl]-4-[4-[4-methyl-5-[4-(trifluoromethoxy)phenyl]-1H-imidazol-2-yl]-1-piperidyl]-7H-pyrrolo[2,3-d]pyrimidine], which IC50 is on record?
Answer: 0.0001 to 1 µM

Question: With `COc1cc(-c2cc3c(N4CCC(c5nc(C)c(-c6ccc(C)s6)[nH]5)CC4)ncnc3[nH]2)ccn1` [P-3117, 6-(2-methoxy-4-pyridyl)-4-[4-[4-methyl-5-(5-methyl-2-thienyl)-1H-imidazol-2-yl]-1-piperidyl]-7H-pyrrolo[2,3-d]pyrimidine] as the molecule, how does the IC50 read?
Answer: 0.0001 to 1 µM

Question: `Cc1ccc(-c2[nH]c(C3CCN(c4ncnc5[nH]c(-c6ccc(F)cc6)cc45)CC3)nc2C)s1` [P-3118, 6-(4-fluorophenyl)-4-[4-[4-methyl-5-(5-methyl-2-thienyl)-1H-imidazol-2-yl]-1-piperidyl]-7H-pyrrolo[2,3-d]pyrimidine] was tested. Which IC50 did it give?
Answer: 0.0001 to 1 µM

Question: How did the IC50 turn out when `Cc1nc(C2CCN(c3ncnc4[nH]c(-c5ccc(F)cc5)cc34)CC2)[nH]c1-c1ccc(Cl)s1` [P-3119, 4-[4-[5-(5-chloro-2-thienyl)-4-methyl-1H-imidazol-2-yl]-1-piperidyl]-6-(4-fluorophenyl)-7H-pyrrolo[2,3-d]pyrimidine] was run?
Answer: 1 to 10 µM

Question: Which IC50 does the source give for `Cc1cc2c(N3CCC(c4nc(C)c(-c5ccc6c(c5)OCO6)[nH]4)CC3)ncnc2[nH]1` [P-3120, 4-[4-[5-(1,3-benzodioxol-5-yl)-4-methyl-1H-imidazol-2-yl]-1-piperidyl]-6-methyl-7H-pyrrolo[2,3-d]pyrimidine] here?
Answer: 1 to 10 µM

Question: For `Cc1cc2c(N3CCC(c4nc(C)c(-c5ccc6c(c5)OCCO6)[nH]4)CC3)ncnc2[nH]1` [P-3121, 4-[4-[5-(2,3-dihydro-1,4-benzodioxin-6-yl)-4-methyl-1H-imidazol-2-yl]-1-piperidyl]-6-methyl-7H-pyrrolo[2,3-d]pyrimidine], which IC50 is on record?
Answer: 1 to 10 µM

Question: Which IC50 does the source give for `Cc1nn(C)cc1-c1cc2c(N3CCC(c4nc(C)c(-c5ccc(OC(F)(F)F)cc5)[nH]4)CC3)ncnc2[nH]1` [P-3122, 6-(1,3-dimethylpyrazol-4-yl)-4-[4-[4-methyl-5-[4-(trifluoromethoxy)phenyl]-1H-imidazol-2-yl]-1-piperidyl]-7H-pyrrolo[2,3-d]pyrimidine] here?
Answer: 0.0001 to 1 µM

Question: For `COc1cccc(-c2[nH]c(C3CCN(c4ncnc5[nH]c(-c6ccnc(OC)c6)cc45)CC3)nc2C(F)(F)F)c1` [P-3123, 4-[4-[5-(3-methoxyphenyl)-4-(trifluoromethyl)-1H-imidazol-2-yl]-1-piperidyl]-6-(2-methoxy-4-pyridyl)-7H-pyrrolo[2,3-d]pyrimidine], which IC50 is on record?
Answer: 0.0001 to 1 µM

Question: `COc1cccc(-c2[nH]c(C3CCN(c4ncnc5[nH]c(-c6ccc(C#N)cc6)cc45)CC3)nc2C(F)(F)F)c1` [P-3124, 4-[4-[4-[5-(3-methoxyphenyl)-4-(trifluoromethyl)-1H-imidazol-2-yl]-1-piperidyl]-7H-pyrrolo[2,3-d]pyrimidin-6-yl]benzonitrile] was tested. Which IC50 did it give?
Answer: 0.0001 to 1 µM

Question: For `CCOc1ccc(-c2[nH]c(C3CCN(c4ncnc5[nH]c(C)cc45)CC3)nc2C)cc1C` [P-3125, 4-[4-[5-(4-ethoxy-3-methyl-phenyl)-4-methyl-1H-imidazol-2-yl]-1-piperidyl]-6-methyl-7H-pyrrolo[2,3-d]pyrimidine], which IC50 is on record?
Answer: 1 to 10 µM

Question: Which IC50 does the source give for `CCOc1cc(-c2[nH]c(C3CCN(c4ncnc5[nH]c(C)cc45)CC3)nc2C)ccc1C` [P-3126, 4-[4-[5-(3-ethoxy-4-methyl-phenyl)-4-methyl-1H-imidazol-2-yl]-1-piperidyl]-6-methyl-7H-pyrrolo[2,3-d]pyrimidine] here?
Answer: 0.0001 to 1 µM
